In US9452170B2, “Compounds and methods for inducing chondrogenesis” (The California Institute for Biomedical Research, priority 2013, dated 2016) one finds activation data, which are given here for 54 compounds.

Where only a bound is given, the exact number is not on record here.

The subject of this assay is Human MSCs. Description: Human chondrocyte differentiation assay (immunostaining for type II collagen, Sox9 and COMP). It counts as cell-based. The conditions noted are these: 168 h, compound 1 μM, 7 days, vs DMSO vehicle, read-out: Biological Activity (increase in staining intensity compared to vehicle control). As for the experimental part: Human MSCs (50,000) were plated into each well of a 96-well plate and cultured overnight. Compounds (in DMSO solution) were added to the cells at a final concentration of 1 μM, and the cells were cultured for 7 days at 5% CO2, 37° C. The cells were fixed with 10% formalin solution at room temperature for 10 min, and immunostained using antibodies specific for type II collagen (Abcam), Sox9 (Santa Cruz) and cartilage oligomeric matrix protein (COMP, Santa Cruz), and fluorescently labeled secondary antibodies (Li-Cor). The total intensity of the staining was measured using Oddyssey CLx imaging system (Li-Cor). Vehicle (DMSO) was used as control to determine the basal level of chondrocyte differentiation. […] Representative data are shown in Table 1 [A: >50% increase in staining intensity compared to vehicle control; B: 30-50% increase in staining intensity compared to vehicle control].
With `COC(=O)c1ccccc1NC(=O)Nc1ccccc1` [Compound 200], the activation at 1 µM was in the range of 30 to 50%.

As to `O=C(O)c1ccccc1C(=O)Nc1nccs1` [Compound 29], the activation at 1 µM fell in the range of 30 to 50%.

For `N#Cc1cc(NC(=O)c2ccccc2C(=O)O)ccc1F` [Compound 36], the activation at 1 µM fell in the range of 30 to 50%.

For `N#Cc1ccc(NC(=O)c2ccccc2NS(=O)(=O)c2ccccc2)cc1` [Compound 77], the activation at 1 µM is greater than 50%.

For `O=C(CC1NC(=O)c2ccccc21)c1ccc(C(F)(F)F)cc1` (stereo not drawn) [Compound 42], the activation at 1 µM lay in the range of 30 to 50%.

As to `N#Cc1ccc(C(=O)CC2OC(=O)c3ccccc32)cc1` (stereo not drawn) [Compound 25], the activation at 1 µM was in the range of 30 to 50%.

`O=C(O)c1ccccc1C(=O)Nc1ccccc1CCO` [Compound 57]: the activation at 1 µM is 30 to 50%.

As to `O=C(O)c1ccc(F)cc1C(=O)Nc1ccc(CCCO)cc1` [Compound 183], the activation at 1 µM is 30 to 50%.

On to `CS(=O)(=O)Nc1ccccc1C(=O)Nc1ccc(CC#N)cc1` [Compound 45], for which the activation at 1 µM fell in the range of 30 to 50%.

In the case of `O=C(O)c1ccccc1C(=O)NCc1cc(C(F)(F)F)cc(C(F)(F)F)c1` [Compound 69], the activation at 1 µM is 30 to 50%.

On to `N#Cc1ccc(NC(=O)c2ccccc2-c2ccc(C(=O)O)cc2)cc1` [Compound 60], for which the activation at 1 µM is greater than 50%.

Turning to `COc1ccc(C(=O)NCc2ccc(C(=O)O)cc2)c(C(=O)O)c1` [Compound 106], the activation at 1 µM fell in the range of 30 to 50%.

For `Cc1cc(NC(=O)c2ccccc2C(=O)O)n[nH]1` [Compound 82], the activation at 1 µM is greater than 50%.

On to `N#Cc1cc(NC(=O)c2ccccc2C(=O)O)ccc1Cl` [Compound 2], for which the activation at 1 µM fell in the range of 30 to 50%.

Turning to `O=C(O)c1ccccc1C(=O)Nc1cccc(C(F)(F)F)c1` [Compound 18], the activation at 1 µM was greater than 50%.

Take `O=C(O)c1ccccc1C(=O)Nc1ccc(C(F)(F)F)c(F)c1` [Compound 10]: the activation at 1 µM is 30 to 50%.

On to `N#Cc1ccc(C(=O)CC2NC(=O)c3ccccc32)cc1` (stereo not drawn) [Compound 24], for which the activation at 1 µM was greater than 50%.

For `O=C(O)c1ccccc1C(=O)Nc1ccon1` [Compound 80], the activation at 1 µM lay within 30 to 50%.

For the compound `Cc1cccc(C(=O)O)c1C(=O)Nc1ccc(CCCO)cc1` [Compound 190], the activation at 1 µM was greater than 50%.

For `CC(=O)c1ccc(OC(F)F)c(NC(=O)c2ccccc2C(=O)O)c1` [Compound 14], the activation at 1 µM fell in the range of 30 to 50%.

Turning to `CC(=O)c1cc(NC(=O)c2ccccc2C(=O)O)ccc1F` [Compound 31], the activation at 1 µM was in the range of 30 to 50%.

`O=C(O)c1ccc(CNC(=O)c2ccccc2C(=O)O)c(Cl)c1` [Compound 96]: the activation at 1 µM was 30 to 50%.

Take `COC(=O)c1ccccc1NC(=O)Nc1ccccc1C` [Compound 197]: the activation at 1 µM fell in the range of 30 to 50%.

On to `COC(=O)c1ccccc1NC(=O)Nc1ccc(C)cc1` [Compound 198], for which the activation at 1 µM was in the range of 30 to 50%.

For `Cc1ccc(NC(=O)c2ccccc2C(=O)O)c(C#N)c1` [Compound 13], the activation at 1 µM was 30 to 50%.

For `O=C(Nc1ccccc1S(=O)(=O)N1CCOCC1)c1cccc(F)c1` [Compound 110], the activation at 1 µM is 30 to 50%.

As to `COC(=O)c1ccccc1NC(=O)Nc1cccc(C(C)=O)c1` [Compound 193], the activation at 1 µM fell in the range of 30 to 50%.

Consider `COc1cccc(C(=O)NCc2ccc(C(=O)O)cc2)c1C(=O)O` [Compound 103], for which the activation at 1 µM was greater than 50%.

As for `O=C(O)c1ccccc1C(=O)Nc1ccccc1OCC(F)(F)F` [Compound 83], the activation at 1 µM was greater than 50%.

For the compound `N#Cc1ccc(F)c(NC(=O)c2ccccc2C(=O)O)c1` [Compound 34], the activation at 1 µM is 30 to 50%.

In the case of `O=C(O)c1ccccc1C(=O)Nc1ccc(Cl)cc1C(F)(F)F` [Compound 11], the activation at 1 µM fell in the range of 30 to 50%.

For `COc1cccc(C(=O)O)c1C(=O)NCc1ccc(C(=O)O)cc1` [Compound 104], the activation at 1 µM is greater than 50%.

For `COc1ccccc1NC(=O)c1ccccc1C(=O)O` [Compound 68], the activation at 1 µM was greater than 50%.

As to `O=C(O)c1ccc(C(=O)Nc2ccccc2S(=O)(=O)N2CCOCC2)cc1` [Compound 147], the activation at 1 µM fell in the range of 30 to 50%.

Consider `O=C(O)c1cc(F)ccc1C(=O)Nc1ccc(CCCO)cc1` [Compound 180], for which the activation at 1 µM was 30 to 50%.

In the case of `O=C(O)c1ccc(CNC(=O)c2cccc(F)c2C(=O)O)cc1` [Compound 93], the activation at 1 µM was 30 to 50%.

Turning to `CC(C)(CO)c1ccc(NC(=O)c2ccccc2C(=O)O)cc1` [Compound 32], the activation at 1 µM lay in the range of 30 to 50%.

On to `N#Cc1cc(CNC(=O)c2ccccc2C(=O)O)ccc1C(=O)O` [Compound 155], for which the activation at 1 µM is greater than 50%.

In the case of `N#Cc1ccccc1C(=O)CC1OC(=O)c2ccccc21` (stereo not drawn) [Compound 40], the activation at 1 µM fell in the range of 30 to 50%.

Turning to `Cc1ccccc1NC(=O)Nc1ccccc1C(=O)O` [Compound 199], the activation at 1 µM lay in the range of 30 to 50%.

As to `N#Cc1cc(F)cc(NC(=O)c2ccccc2C(=O)O)c1` [Compound 37], the activation at 1 µM was greater than 50%.

Take `O=C(Nc1ccc(CCCO)cc1)c1cccc(F)c1C(=O)O` [Compound 181]: the activation at 1 µM lay within 30 to 50%.

As to `O=C(O)c1ccccc1C(=O)Nc1ccccc1OC(F)(F)F` [Compound 17], the activation at 1 µM is 30 to 50%.

In the case of `COC(=O)c1ccccc1NC(=O)Nc1ccc(C(C)=O)cc1` [Compound 206], the activation at 1 µM was 30 to 50%.

Turning to `CN(C)S(=O)(=O)c1ccccc1NC(=O)c1ccc(C#N)cc1` [Compound 56], the activation at 1 µM is greater than 50%.

Turning to `O=C(Nc1ccc(CCCO)cc1)c1cccc(Cl)c1C(=O)O` [Compound 185], the activation at 1 µM was in the range of 30 to 50%.

For the compound `O=C(O)c1ccccc1C(=O)Nc1ccc2c(c1)OCCO2` [Compound 64], the activation at 1 µM is 30 to 50%.

With `N#Cc1cccc(NC(=O)c2ccccc2C(=O)O)c1F` [Compound 35], the activation at 1 µM is 30 to 50%.

Consider `N#Cc1ccc(C(=O)Nc2cnccc2C(=O)O)cc1` [Compound 54], for which the activation at 1 µM fell in the range of 30 to 50%.

`NC(=O)Cc1ccc(NC(=O)c2ccccc2C(=O)O)cc1` [Compound 51]: the activation at 1 µM is 30 to 50%.

With `Cc1ccc2c(c1)C(=O)N(c1ccc(C(=O)O)cc1)C2=O` [Compound 33], the activation at 1 µM lay in the range of 30 to 50%.

`CC(=O)c1cc(NC(=O)c2ccccc2C(=O)O)ccc1Cl` [Compound 5]: the activation at 1 µM was 30 to 50%.

Consider `CC(=O)Nc1ccc(NC(=O)c2ccccc2C(=O)O)cc1` [Compound 142], for which the activation at 1 µM lay in the range of 30 to 50%.

As to `O=C(O)c1cccc(Cl)c1C(=O)Nc1ccc(CCCO)cc1` [Compound 186], the activation at 1 µM fell in the range of 30 to 50%.
